# “Also recorded” adds a separate entry of the source.
# Assays:
# [1] = system: rat basilar arteries (contractile ETB receptors); assay: 48 h organ culture of basilar artery, S6c (ETB agonist)-induced contraction in wire myograph; type: cell-based
# Procedure: Rats were sedated with O2/CO2 (30/70%) and sacrificed by decapitation. Brains were gently removed and chilled in a cold oxygenated buffer solution of the following composition: 119 mM NaCl, 4.6 mM KCl, 1.5 mM CaCl2, 1.2 mM MgCl2, 1.2 mM NaH2PO4, 15 mM NaHCO3 and 5.5 mM Glucose; pH 7.4. The basilar artery (BA) was carefully dissected from the brain in a physiological buffer solution followed by either OC (naïve animals) or directly mounted in a wire myograph (arteries from rats which has undergone surgical procedures). Segments were incubated for 48 hours at 37° C. in humidified 5% CO2/O2 in DMEM supplemented with streptomycin and penicillin with inhibitors or vehicle (DMSO). Culture media was changed after 24 hours.
# (§1) For contractility measurements, both incubated BAs (ex vivo) and BAs after surgical procedure (in vivo) were cut into segments and mounted on a pair of metal wires (40 μm) in a myograph bath. The arteries from OC were mounted the same way after 48 hours in media. One wire was attached to a micro-meter screw which allows for fine adjustments of the distance between the wires, controlling the vascular tone.
# The segments were equilibrated in physiological buffer aerated with 95% O2/5% CO2, pH of 7.4, temperature set at 37° C. and the wires were separated for isometric pretension at 2 Nm^−1. The arterial segments were exposed two or three times with 60 mM K^+, by exchanging the buffer with a 60 mM K^+ buffer solution. To maintain equal osmolarity, a proportional amount of Na^+ had been removed from the buffer. An absolute cut-off was set at 2.0 mN K^+max for inclusion of arterial segments from rats that underwent the surgical procedure. Endothelium function was evaluated with the addition of 5-HT (3.10^−7 M) followed by carbachol (10^−5 M). For arteries from the OC the protocol was as followed: first a cumulative concentration-response curve to sarafotoxin 6C (S6c, 10^−14-10^−7 M), followed by a concentration-response curve to endothelin-1 (ET-1, 10^−14-10^−7 M). At peak ET-1 (10^−7 M), the buffer was changed to a Ca^2+-free buffer containing 10^−7 M ET-1 and nimodipine (L-type of voltage dependent Ca^2+ channel entry blocker, 10^−7 M). A concentration-response curve to Ca^2+ (0.0125-3 mM) was then performed. When vasodilation was investigated arteries was precontracted with U46619 (1.10^−7-3.10^−7 M) or K^+ (41 mM) and cumulative concentration-response curves was performed by adding calcitonin gene-related peptide (CGRP, 10^−12-10^−7 M), carbachol (10^−10-10^−5 M) or SNP (10^−11-10^−4 M).
# Contractile responses of each segment were adjusted according to the length of the artery and are expressed as mN/mm (Nm^−1). […] To compare ET-1 sensitivity, arteries were normalized to the percentage of the individual vessel ET-1max. When the artery reached maximum contraction before the last concentration was added, the curves were constrained to the max contraction. The relative log IC50/log EC50 is the concentration corresponding to a response midway between the estimates of the lower and upper plateaus. The Emax is the maximal contraction in the concentration response curve and ET-1max is the maximal contraction to ET-1. All quantitative data is presented as mean±standard error of the mean (SEM), unless otherwise stated.
# [2] = system: rat subarachnoid haemorrhage model; assay: Rat SAH model, intraperitoneal treatment, myograph of basilar arteries; type: in vivo; settings: SAH + i.p. treatment at 6 and 24 hours
# Procedure: as §1
# The segments were equilibrated in physiological buffer aerated with 95% O2/5% CO2, pH of 7.4, temperature set at 37° C. and the wires were separated for isometric pretension at 2 Nm^−1. The arterial segments were exposed two or three times with 60 mM K^+, by exchanging the buffer with a 60 mM K^+ buffer solution. To maintain equal osmolarity, a proportional amount of Na^+ had been removed from the buffer. An absolute cut-off was set at 2.0 mN K^+max for inclusion of arterial segments from rats that underwent the surgical procedure. Endothelium function was evaluated with the addition of 5-HT (3.10^−7 M) followed by carbachol (10^−5 M). For arteries from the OC the protocol was as followed: first a cumulative concentration-response curve to sarafotoxin 6C (S6c, 10^−14-10^−7 M), followed by a concentration-response curve to endothelin-1 (ET-1, 10^−14-10^−7 M). […]
# [3] = system: rat subarachnoid haemorrhage model; assay: Rotating pole test after SAH, intraperitoneal treatment; type: in vivo; settings: SAH + i.p. treatment, 48 hours post-SAH
# Procedure: Gross sensorimotor function was evaluated using a rotating pole test, including a baseline evaluation on the day before induction of SAH. Briefly, movement across a 10-rpm rotating pole (45 mm diameter, 150 cm length) was evaluated with a cage at the end that contain the rat's own bedding material (“smells like home”). Rat performance was scored according to the following definitions: Low, the animal is unable to cross the pole without falling off; High, the animal can traverse the entire pole without falling off. All animals were trained to traverse the pole before surgery. Pre-SAH and on day 1 and 2 after surgery, each animal was scored twice for left and right rotation respectively, i.e. 4 counts per animal. Animals were graded by personnel blinded to the experimental groups of the animals. Data are shown percentage as % high score count/total score count.
# For the intraperitoneal treatment (i.p) the compound was dissolved in 10% cremophor EL (Kolliphor EL) and 10% PEG400 in NaCl, which also served as vehicle. The total dose was administered as two treatments (6 hours and 24 hours). Animals were given 2.5 ml isotonic saline s.c. to avoid dehydration, immediately after surgery and in conjunction with the treatments.
# [4] = system: rat middle cerebral arteries (ETB receptor); assay: 48 h in vitro organ culture of MCAs, wire myography (S6c, ET-1); type: cell-based
# Procedure: MCAs from naïve rats were dissected and segments (1.5 mm) were incubated for 48 h in Dulbecco's modified Eagle's medium contained L-glutamine (584 mg/L) supplemented with penicillin (100 U/ml) and streptomycin ([…]) at humidified 5% CO2 atmosphere. Before incubation, 4 different concentrations of trametinib (5 μM, 1 μM, 0.1 μM or 0.03 μM), dissolved in 0.1% dimethyl sulfoxide (DMSO) in NaCl, or 0.1% DMSO in NaCl (vehicle) was added.
compound,measurement,setting,value
CC(=O)Nc1cccc(-n2c(=O)n(C3CC3)c(=O)c3c(Nc4ccc(I)cc4F)n(C)c(=O)c(C)c32)c1 [trametinib],inhibition of S6c-induced contraction (initial screening groups),"[1]; 1 μM inhibitor, 48 h organ culture, S6c contraction relative to 60 mM K+",Highly effective; also recorded: almost completely inhibited
same,IC50,"[1]; Rattus norvegicus, 48 h organ culture, inhibition of S6c-induced contraction, read-out: pIC50 (based on the Emax for S6c) (converted)",20.9 nM
same,estimated inhibitor effect in the ex vivo OC study,[1]; at predicted CSF concentration of approximately 10^-7 M,~75%
same,ET-1 contractility (at 10^-9.5 M) vs SAH+i.p. vehicle,[2],significant decrease in contractility
same,contractile response of BAs to 60 mM K+,[2],3.03±0.19 Nm-1
same,rotating pole Score48 h (% high score count/total score count),[3],100%
same,increased ET-1-induced vasoconstriction of MCAs,"[4]; 0.1 μM, 48 h OC",total blockage of the ETB receptor subtype response; also recorded: significantly inhibit; also recorded: inhibitory effect
same,S6c-induced contraction of MCAs,"[4]; 48 h OC, 5, 1, 0.1 or 0.03 μM, concentration-dependent",significantly inhibited
